Where two headings read alike, the source gives them in different places.
Key:
[1] = test system: fibrin-induced microglia activation; assay: Image-based assay of fibrin-induced microglia activation (HTS and dose response); assay type: cell-based, rat; conditions: for inhibition at 10 µM: Rattus norvegicus, Microglia, read-out: Fibrin % inhibition
[2] = test system: LPS-induced microglia activation; assay: Image-based assay of LPS-induced microglia activation (HTS and dose response); assay type: cell-based, rat; conditions: for inhibition at 10 µM: Rattus norvegicus, Microglia, read-out: LPS % inhibition
primary rat microglia [3] = assay: Cell toxicity (dead cells, size <150 μm2) in LPS assay
primary rat microglia [4] = assay: Cell toxicity (dead cells, size <150 μm2) in coated fibrin (cFib) assay;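 also: share of dead cells sized under 150 µm2 at 10 µM in fibrin-stimulated microglia HTS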
[5] = test system: fibrin- and LPS-induced microglia activation; assay: cells; assay type: cell-based, rat
[6] = primary microglia HTS, 10 μM, fibrin-stimulated, cell size >800 μm^2 as marker of activation
[7] = primary microglia HTS, 10 μM, LPS-stimulated, cell size >800 μm^2 as marker of activation
[8] = primary microglia HTS, 10 μM, LPS assay, cell size <150 μm^2 as marker of toxicity
[9] = primary microglia HTS, 10 μM, fibrin assay, cell size <150 μm^2 as marker of toxicity
[10] = HTS of 1907 compounds, quadrant by fibrin and LPS inhibition
[11] = primary microglia HTS, fibrin stimulation, increased cell size (>800 μm^2) as marker of activation
[12] = primary microglia HTS, LPS stimulation, increased cell size (>800 μm^2) as marker of activation
[13] = primary microglia HTS, LPS stimulation, decreased size (<150 μm^2) as marker of toxicity
[14] = primary microglia HTS, fibrin stimulation, decreased size (<150 μm^2) as marker of toxicity
[15] = quadrant by fibrin and LPS inhibition in HTS of 1907 compounds
[16] = primary HTS, 10 μM, fibrin-stimulated primary microglia
[17] = primary HTS, 10 μM, LPS-stimulated primary microglia
[18] = primary HTS, 10 μM, LPS assay, dead cells size <150 μm2
[19] = primary HTS, 10 μM, fibrin assay, dead cells size <150 μm2
[20] = 48 h, primary microglia HTS, LPS stimulation, increased cell size (>800 μm^2) as marker of activation

## CC(=O)N(c1onc(C)c1C)S(=O)(=O)c1ccc(N)cc1 [Sulfisoxazole Acetyl]
[1]; [6]
  inhibition at 10 µM: -3%
[2]; [7]
  inhibition at 10 µM: 17%
Primary rat microglia [3]; [8]
  LPS % cell toxicity: 1%
Primary rat microglia [4]; [9]
  Fibrin % cell toxicity: 1%
[5]; [10]
  Quadrant (FIG. 5b): Q4

## Cc1onc(-c2ccccc2)c1C(=O)N[C@@H]1C(=O)N2[C@@H]1SC(C)(C)[C@@H]2C(=O)[O-].[Na+] [Oxacillin Sodium]
[1]; [11]
  Fibrin % inhibition: −20%
[2]; [12]
  LPS % inhibition: 11%
Primary rat microglia [3]; [13]
  LPS % cell toxicity: 0%
Primary rat microglia [4]; [14]
  Fibrin % cell toxicity: 0%
[5]; [15]
  Quadrant (FIG. 5b): Q4

## NS(=O)(=O)c1cc2c(cc1Cl)N=CNS2(=O)=O [Chlorothiazide]
[1]; [16]
  inhibition at 10 µM: 20%
[2]; [17]
  inhibition at 10 µM: 3%
Primary rat microglia [3]; [18]
  LPS % cell toxicity: 0%
Primary rat microglia [4]; [19]
  Fibrin % cell toxicity: 0%
[5]; primary HTS, 10 μM
  Quadrant (FIG. 5b): Q4

## NC(=O)NC(=O)Cc1ccccc1 [Phenacemide]
[1]; [11]
  inhibition at 10 µM: -9%
[2]; [20]
  inhibition at 10 µM: 66%
Primary rat microglia [3]; [13]
  LPS % cell toxicity: 1%
Primary rat microglia [4]; [14]
  Fibrin % cell toxicity: 1%
[5]; [15]
  Quadrant (FIG. 5b): Q1

## C=C[C@H]1C[N@@]2CC[C@H]1C[C@@H]2[C@@H](O)c1ccnc2ccccc12 [Cinchonine]
[1]; [16]
  inhibition at 10 µM: -6%
[2]; [17]
  inhibition at 10 µM: 28%
Primary rat microglia [3]; [18]
  LPS % cell toxicity: 0%
Primary rat microglia [4]; [19]
  Fibrin % cell toxicity: 1%
[5]; primary HTS, 10 μM
  Quadrant (FIG. 5b): Q4

## CC1=C(CC(=O)O)c2cc(F)ccc2/C1=C\c1ccc(S(C)(=O)=O)cc1 [Sulindac Sulfone]
[1]; [6]
  Fibrin % inhibition: −27%
[2]; [7]
  LPS % inhibition: 3%
Primary rat microglia [3]; [8]
  LPS % cell toxicity: 0%
Primary rat microglia [4]; [9]
  Fibrin % cell toxicity: 1%
[5]; [10]
  Quadrant (FIG. 5b): Q4

## Oc1ccc(Cl)c2cccnc12 [Cloxyquin]
[1]; [16]
  inhibition at 10 µM: -4%
[2]; [17]
  inhibition at 10 µM: 18%
Primary rat microglia [3]; [18]
  LPS % cell toxicity: 0%
Primary rat microglia [4]; [19]
  Fibrin % cell toxicity: 0%
[5]; primary HTS, 10 μM
  Quadrant (FIG. 5b): Q4

## CC(=O)OCC(=O)[C@@]12OC3(CCCC3)O[C@@H]1C[C@H]1[C@@H]3CCC4=CC(=O)C=C[C@]4(C)[C@@]3(F)[C@@H](O)C[C@@]12C [Amcinonide]
[1]; [11]
  inhibition at 10 µM: 112%
[2]; [20]
  inhibition at 10 µM: 119%
Primary rat microglia [3]; [13]
  LPS % cell toxicity: 6%
Primary rat microglia [4]; [14]
  Fibrin % cell toxicity: 7%
[5]; [15]
  Quadrant (FIG. 5b): Q2

## COc1cc(NS(=O)(=O)c2ccc(N)cc2)ncn1 [Sulfamonomethoxine]
[1]; [6]
  inhibition at 10 µM: 38%
[2]; [7]
  inhibition at 10 µM: 19%
Primary rat microglia [3]; [8]
  LPS % cell toxicity: 1%
Primary rat microglia [4]; [9]
  Fibrin % cell toxicity: 1%
[5]; [10]
  Quadrant (FIG. 5b): Q4

## NS(=O)(=O)c1cc2c(cc1Cl)NC(C(Cl)Cl)NS2(=O)=O (stereo not shown) [Trichlormethiazide]
[1]; [6]
  inhibition at 10 µM: 17%
[2]; [7]
  inhibition at 10 µM: 13%
Primary rat microglia [3]; [8]
  LPS % cell toxicity: 0%
Primary rat microglia [4]; [9]
  Fibrin % cell toxicity: 1%
[5]; [10]
  Quadrant (FIG. 5b): Q4

## COc1cc(O)c(C(=O)c2ccccc2)cc1S(=O)(=O)O [Sulisobenzone]
[1]; [6]
  inhibition at 10 µM: -19%
[2]; [7]
  inhibition at 10 µM: -2%
Primary rat microglia [3]; [8]
  LPS % cell toxicity: 0%
Primary rat microglia [4]; [9]
  Fibrin % cell toxicity: 0%
[5]; [10]
  Quadrant (FIG. 5b): Q4

## Cc1cccc(C)c1NC(=O)CN1CCCC1=O [Nefiracetam]
[1]; [11]
  inhibition at 10 µM: -21%
[2]; [20]
  inhibition at 10 µM: 13%
Primary rat microglia [3]; [13]
  LPS % cell toxicity: 0%
Primary rat microglia [4]; [14]
  Fibrin % cell toxicity: 0%
[5]; [15]
  Quadrant (FIG. 5b): Q4

## CN1[C@@H](CC(=O)c2ccccc2)CCC[C@H]1C[C@H](O)c1ccccc1 [Lobeline]
[1]; primary microglia HTS, fibrin stimulation, activation = cell size >800 μm2
  inhibition at 10 µM: -38%
[2]; 48 h, primary microglia HTS, LPS stimulation, activation = cell size >800 μm2
  inhibition at 10 µM: -5%
Primary rat microglia [3]; primary microglia HTS, LPS stimulation, toxicity = cell size <150 μm2
  LPS % cell toxicity: 0%
Primary rat microglia [4]; primary microglia HTS, fibrin stimulation, toxicity = cell size <150 μm2
  Fibrin % cell toxicity: 1%
[5]; [15]
  Quadrant (FIG. 5b): Q4

## C[C@]12C/C(=C/O)C(=O)C[C@@H]1CC[C@@H]1[C@@H]2CC[C@@]2(C)[C@H]1CC[C@]2(C)O [Oxymetholone]
[1]; [11]
  inhibition at 10 µM: -18%
[2]; [20]
  inhibition at 10 µM: -7%
Primary rat microglia [3]; [13]
  LPS % cell toxicity: 0%
Primary rat microglia [4]; [14]
  Fibrin % cell toxicity: 1%
[5]; [15]
  Quadrant (FIG. 5b): Q4

## CCN(CC)CCNC(=O)c1ccc(NC(C)=O)cc1.Cl
[1]; [11]
  Fibrin % inhibition: −11%
[2]; [12]
  LPS % inhibition: 9%
Primary rat microglia [3]; [13]
  LPS % cell toxicity: 1%
Primary rat microglia [4]; [14]
  Fibrin % cell toxicity: 0%
[5]; [15]
  Quadrant (FIG. 5b): Q4

## Oc1c(Br)cc(Br)c2cccnc12 [Broxyquinoline]
[1]; [16]
  inhibition at 10 µM: -25%
[2]; [17]
  inhibition at 10 µM: 8%
Primary rat microglia [3]; [18]
  LPS % cell toxicity: 0%
Primary rat microglia [4]; [19]
  Fibrin % cell toxicity: 0%
[5]; primary HTS, 10 μM
  Quadrant (FIG. 5b): Q4

## C[CH2][Hg][S]c1ccccc1C(=O)O [Ethylmercurithiosalicylic acid]
[1]; [11]
  Fibrin % inhibition: 109%
[2]; [12]
  LPS % inhibition: 127%
Primary rat microglia [3]; [13]
  LPS % cell toxicity: 95%
Primary rat microglia [4]; [14]
  Fibrin % cell toxicity: 92%
[5]; [15]
  Quadrant (FIG. 5b): Q2
